The assay addresses Peptide deformylase (Escherichia coli) (UniProt P0A6K3). As to the kind of experiment: Inhibition against Escherichia coli peptide deformylase.

Chain of Peptide deformylase (Escherichia coli) (P0A6K3 whole entry, looked up): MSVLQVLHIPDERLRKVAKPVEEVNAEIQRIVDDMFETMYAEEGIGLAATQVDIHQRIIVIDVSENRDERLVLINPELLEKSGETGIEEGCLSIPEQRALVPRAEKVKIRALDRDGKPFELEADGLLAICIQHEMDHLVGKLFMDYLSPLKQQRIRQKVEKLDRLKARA

As usually defined, the IC50 is the concentration needed to halve the response being measured. A low value points to greater potency. Compound `CC#CC[C@H](CN(O)C=O)C(=O)N[C@H](C(=O)N(C)C)C(C)(C)C` [(R)-2-[(Formyl-hydroxy-amino)-methyl]-hex-4-ynoic acid ((S)-1-dimethylcarbamoyl-2,2-dimethyl-propyl)-amide] had a 50% inhibitory concentration (IC50) of 30 nM.

In turn, `CCCCCCCC[C@H](CN(O)C=O)C(=O)N[C@H](C(=O)N(C)C)C(C)(C)C` [(R)-2-[(Formyl-hydroxy-amino)-methyl]-decanoic acid [1-((S)-dimethyl-carbamoyl)-2,2-dimethyl-propyl]-amide] displayed an IC50 of 50 nM.

Take `CCSC[C@H](CN(O)C=O)C(=O)N[C@H](C(=O)N(C)C)C(C)(C)C` [(S)-2-[(R)-2-Ethylsulfanylmethyl-3-(formyl-hydroxy-amino)-propionylamino]-3,3,N,N-tetramethyl-butyramide]: the IC50 amounted to 20 nM.

Regarding `CCCCC[C@H](CN(O)C=O)C(=O)N[C@H](C(=O)N(C)C)C(C)(C)C` [(R)-2-[(Formyl-hydroxy-amino)-methyl]-heptanoic acid ((S)-1-dimethylcarbamoyl-2,2-dimethyl-propyl)-amide], the IC50 was found to be 10 nM.

`CN(C)C(=O)[C@@H](NC(=O)[C@@H](CN(O)C=O)C1CCCC1)C(C)(C)C` [(S)-2-[(R)-2-Cyclopentyl-3-(formyl-hydroxy-amino)-propionylamino]-3,3,N,N-tetramethyl-butyramide]: the midpoint of inhibition, the IC50, lay at 20 nM.

The compound `CN(C)C(=O)[C@@H](NC(=O)[C@H](Cc1ccccc1)CN(O)C=O)C(C)(C)C` [(S)-2-[(R)-2-Benzyl-3-(formyl-hydroxy-amino)-propionylamino]-3,3,N,N-tetramethyl-butyramide] displayed an IC50 of 20 nM.

The compound `CCCCCC[C@H](CN(O)C=O)C(=O)N[C@H](C(=O)N(C)C)C(C)(C)C` [(R)-2-[(Formyl-hydroxy-amino)-methyl]-octanoic acid ((S)-1-dimethylcarbamoyl-2,2-dimethyl-propyl)-amide] gave a 50% inhibitory concentration (IC50) of 30 nM.

With `CN(C)C(=O)[C@@H](NC(=O)[C@@H](CN(O)C=O)CN1CCCCC1)C(C)(C)C` [(S)-2-{(R)-2-[(Formyl-hydroxy-amino)-methyl]-3-piperidin-1-yl-propionylamino}-3,3,N,N-tetramethyl-butyramide], the half-inhibitory concentration (IC50) was greater than 1000 nM.

`CC(C)C[C@H](CN(O)C=O)C(=O)N[C@H](C(=O)N(C)C)C(C)(C)C` [(R)-2-[(Formyl-hydroxy-amino)-methyl]-4-methyl-pentanoic acid ((S)-1-dimethylcarbamoyl-2,2-dimethyl-propyl)-amide]: the 50% inhibitory concentration (IC50) was found to be 10 nM.

In the case of `CC(C)[C@H](CN(O)C=O)C(=O)N[C@H](C(=O)N(C)C)C(C)(C)C` [(R)-N-((S)-1-Dimethylcarbamoyl-2,2-dimethyl-propyl)-2-[(formyl-hydroxy-amino)-methyl]-3-methyl-butyramide], it took 50 nM to reach half-maximal inhibition (IC50).

With `C=CC[C@H](CN(O)C=O)C(=O)N[C@H](C(=O)N(C)C)C(C)(C)C` [(R)-2-[(Formyl-hydroxy-amino)-methyl]-pent-4-enoic acid ((S)-1-dimethylcarbamoyl-2,2-dimethyl-propyl)-amide], inhibition was half-maximal at 30 nM (IC50).

`CC(C)CC[C@H](CN(O)C=O)C(=O)N[C@H](C(=O)N(C)C)C(C)(C)C` [(R)-2-[(Formyl-hydroxy-amino)-methyl]-5-methyl-hexanoic acid ((S)-1-dimethylcarbamoyl-2,2-dimethyl-propyl)-amide] came in with an IC50 of 20 nM.

In turn, `C=CCC[C@H](CN(O)C=O)C(=O)N[C@H](C(=O)N(C)C)C(C)(C)C` [(R)-2-[(Formyl-hydroxy-amino)-methyl]-hex-5-enoic acid ((S)-1-dimethylcarbamoyl-2,2-dimethyl-propyl)-amide] came in with an IC50 of 20 nM.

In turn, `CCCC[C@@H](C(=O)N[C@H](C(=O)N(C)C)C(C)(C)C)C(C)N(O)C=O` (stereo partly drawn) [(R)-2-[1-(Formyl-hydroxy-amino)-ethyl]-hexanoic acid ((S)-1-dimethylcarbamoyl-2,2-dimethyl-propyl)-amide] returned an IC50 of 600 nM.

On to `CC[C@H](CN(O)C=O)C(=O)N[C@H](C(=O)N(C)C)C(C)(C)C` [(S)-2-{(R)-2-[(Formyl-hydroxy-amino)-methyl]-butyrylamino}-3,3,N,N-tetramethyl-butyramide], for which the IC50 was 70 nM.

Compound `CN(C)C(=O)[C@@H](NC(=O)[C@H](CC1CCCCC1)CN(O)C=O)C(C)(C)C` [(S)-2-[(R)-2-Cyclohexylmethyl-3-(formyl-hydroxy-amino)-propionylamino]-3,3,N,N-tetramethyl-butyramide] yielded an IC50 of 6 nM.

On to `C[C@H](CN(O)C=O)C(=O)N[C@H](C(=O)N(C)C)C(C)(C)C` [(S)-2-[(R)-3-(Formyl-hydroxy-amino)-2-methyl-propionylamino]-3,3,N,N-tetramethyl-butyramide], for which inhibition was half-maximal at 100 nM (IC50).

In turn, `CCC[C@H](CN(O)C=O)C(=O)N[C@H](C(=O)N(C)C)C(C)(C)C` [(R)-2-[(Formyl-hydroxy-amino)-methyl]-pentanoic acid ((S)-1-dimethylcarbamoyl-2,2-dimethyl-propyl)-amide] registered an IC50 of 50 nM.

Compound `CCCCCCC[C@H](CN(O)C=O)C(=O)N[C@H](C(=O)N(C)C)C(C)(C)C` [(R)-2-[(Formyl-hydroxy-amino)-methyl]-nonanoic acid ((S)-1-dimethylcarbamoyl-2,2-dimethyl-propyl)-amide] registered an IC50 of 40 nM.

(Values after BindingDB's records for doi:10.1016/s0960-894x(03)00532-8 (British Biotech Pharmaceuticals, 2003).)
